Assay results reported in paper PMC10013850 (Proceedings of the National Academy of Sciences of the …, 2023).

Columns and labels:
hMfsd2a = target: T1, hMfsd2a (Homo sapiens, UniProt Q8NA29); test: single-cell flow cytometry uptake assay in transfected HEK293 cells; details: read-out: apparent Km; 37 °C, 30 min, serum-free DMEM; labelled compound
T1 sequence (Q8NA29 1-530 isoform Q8NA29-2): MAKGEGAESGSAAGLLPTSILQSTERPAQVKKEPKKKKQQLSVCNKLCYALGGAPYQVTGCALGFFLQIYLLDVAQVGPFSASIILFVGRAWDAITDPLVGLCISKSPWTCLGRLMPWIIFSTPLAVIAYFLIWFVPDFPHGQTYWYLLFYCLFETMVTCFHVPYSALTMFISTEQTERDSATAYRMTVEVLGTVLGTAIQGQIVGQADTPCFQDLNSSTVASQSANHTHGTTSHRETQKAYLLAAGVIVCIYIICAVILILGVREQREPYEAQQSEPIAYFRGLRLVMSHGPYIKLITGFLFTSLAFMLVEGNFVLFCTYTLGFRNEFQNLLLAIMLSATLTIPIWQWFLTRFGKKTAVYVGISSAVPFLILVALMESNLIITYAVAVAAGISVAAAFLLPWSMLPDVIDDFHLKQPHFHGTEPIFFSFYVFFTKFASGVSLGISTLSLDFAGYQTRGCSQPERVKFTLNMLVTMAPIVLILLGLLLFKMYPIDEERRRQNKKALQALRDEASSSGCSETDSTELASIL

[1] = substrate: C[N+](C)(C)CCOP(=O)([O-])OC[C@H](O)COC(=O)CCCCCCCCCCCNc1ccc([N+](=O)[O-])c2nonc12; test: cells, lysate or membranes; details: 37 °C, 30 min, serum-free DMEM, labelled compound

LPC-16:1-NBD
Km (hMfsd2a): 3 µM

B1: hMfsd2a (Homo sapiens) (protein)
chain: T1 sequence (Q8NA29 1-530 isoform Q8NA29-2)
Km [1]: 244 µM
